The test concerns the target recombinant Human Phosphodiesterase B2 (PDE4B2) (Homo sapiens, UniProt Q07343). The test is described as follows: Human Phosphodiesterase B2 Radiometric Assay (yttrium silicate SPA beads, [3H]cyclic AMP). Type of test: biochemical. The following applies: recombinant human PDE4B2, radiometric SPA assay, 8 nM [3H]cyclic AMP; read-out: PDE4B2 pIC50 (converted). The gist of the method: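 Read-out is scintillation proximity: yttrium silicate beads (with 18 mM ZnSO4, added to stop the reaction) bind 5′AMP formed from 8 nM [3H]cAMP over 20 min. Beforehand, compound and 0.1 mg/mL enzyme were preincubated 30 min at 30 °C in pH 7.5 HEPES buffer with MgCl2, EGTA and Brij 35; pIC50 values were curve-fitted.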
Chain of recombinant Human Phosphodiesterase B2 (PDE4B2) (Q07343 1-564 isoform Q07343-2): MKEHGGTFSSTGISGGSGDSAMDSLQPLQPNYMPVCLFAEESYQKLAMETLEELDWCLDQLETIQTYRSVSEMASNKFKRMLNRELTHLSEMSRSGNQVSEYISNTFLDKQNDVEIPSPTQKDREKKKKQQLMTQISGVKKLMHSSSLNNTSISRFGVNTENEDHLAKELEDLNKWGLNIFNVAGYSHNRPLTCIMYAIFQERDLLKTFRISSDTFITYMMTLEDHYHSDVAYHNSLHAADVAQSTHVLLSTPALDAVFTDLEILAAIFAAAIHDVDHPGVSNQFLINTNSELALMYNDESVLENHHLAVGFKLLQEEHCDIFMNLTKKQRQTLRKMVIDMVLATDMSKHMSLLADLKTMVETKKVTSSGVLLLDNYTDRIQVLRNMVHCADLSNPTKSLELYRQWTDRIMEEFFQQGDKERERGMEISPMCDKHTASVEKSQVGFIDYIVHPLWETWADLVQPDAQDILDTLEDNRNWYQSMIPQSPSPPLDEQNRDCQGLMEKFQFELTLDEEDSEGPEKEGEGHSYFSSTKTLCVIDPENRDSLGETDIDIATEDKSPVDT
Take `O=c1c2cc(F)cnc2n(-c2cccc(-c3ccc(O)cc3CN3CCOCC3)c2)c(=O)n1[C@H]1CC[C@@H](NCC2CC2)CC1` [Example 249, 3-{cis-4-[(Cyclopropylmethyl)amino]cyclohexyl}-6-fluoro-1-[4′-hydroxy-2′-(morpholin-4-ylmethyl)biphenyl-3-yl]pyrido[2,3-d]pyrimidine-2,4(1H,3H)-dione]: the IC50 is 6.31 nM.

As for `O=C(N[C@H]1CC[C@@H](n2c(=O)c3cc(F)cnc3n(-c3cccc(-c4ccc(CN5CCCOCC5)cc4)c3)c2=O)CC1)c1cn2c(n1)CCCC2` [Example 224, N-{cis-4-[6-fluoro-1-[4′-(1,4-oxazepan-4-ylmethyl)biphenyl-3-yl]-2,4-dioxo-1,4-dihydropyrido[2,3-d]pyrimidin-3(2H)-yl]cyclohexyl}-5,6,7,8-tetrahydroimidazo[1,2-a]pyridine-2-carboxamide], the IC50 was 0.01 nM.

`CN(CCO)Cc1cc(O)ccc1-c1cccc(-n2c(=O)n([C@H]3CC[C@@H](NCc4cn5cc(F)ccc5n4)CC3)c(=O)c3cc(F)cnc32)c1` [Example 329, 6-fluoro-3-(cis-4-{[(6-fluoroimidazo[1,2-a]pyridin-2-yl)methyl]amino}cyclohexyl)-1-(4′-hydroxy-2′-{[(2-hydroxyethyl) (methyl)amino]methyl}biphenyl-3-yl)pyrido[2,3-d]pyrimidine-2,4(1H,3H)-dione]: the IC50 is 0.126 nM.

Consider `O=c1c2cc(F)cnc2n(-c2cccc(-c3ccc(O)cc3CN3CCSCC3)c2)c(=O)n1[C@H]1CC[C@@H](NCc2cn3cc(F)ccc3n2)CC1` [Example 253, 6-Fluoro-3-(cis-4-{[(6-fluoroimidazo[1,2-c]pyridin-2-yl)methyl]amino}cyclohexyl)-1-[4′-hydroxy-2′-(thiomorpholin-4-ylmethyl)biphenyl-3-yl]pyrido[2,3-d]pyrimidine-2,4(1H,3H)-dione], for which the IC50 is 0.0158 nM.

Regarding `Cc1ccc(CN[C@H]2CC[C@@H](n3c(=O)c4cc(F)cnc4n(-c4cccc(-c5ccc(O)cc5CN5CCOCC5)c4)c3=O)CC2)cc1` [Example 278, 6-fluoro-1-[4′-hydroxy-2′-(morpholin-4-ylmethyl)biphenyl-3-yl]-3-{cis-4-[(4-methylbenzyl)amino]cyclohexyl}pyrido[2,3-d] pyrimidine-2,4(1H,3H)-dione], the IC50 was 0.794 nM.

For the molecule `COc1ccc(CN[C@H]2CC[C@@H](n3c(=O)c4cc(F)cnc4n(-c4cccc(-c5ccc(CN6CCN(C(C)C)CC6)cc5)c4)c3=O)CC2)cc1Cl` [Example 260, 3-{cis-4-[(3-chloro-4-methoxybenzyl)amino]cyclohexyl}-6-fluoro-1-{4′-[(4-isopropyl-piperazin-1-yl)methyl]biphenyl-3-yl}pyrido[2,3-d]pyrimidine-2,4(1H,3H)-dione], the IC50 is 0.501 nM.

For the molecule `CC(C)N1CCN(Cc2ccc(-c3cccc(-n4c(=O)n([C@H]5CC[C@@H](NC(=O)CN6CCCCC6)CC5)c(=O)c5cc(F)cnc54)c3)cc2)CC1` [Example 237, N-{cis-4-[6-fluoro-1-{4′-[(4-isopropylpiperazin-1-yl)methyl]biphenyl-3-yl}-2,4-dioxo-1,4-di-hydropyrido[2,3-d]pyrimidin-3(2H)-yl]cyclohexyl}-2-piperidin-1-ylacetamide], the IC50 was 0.0398 nM.

As for `CC(C)NCCc1ccc(-c2cccc(-n3c(=O)n([C@H]4CC[C@@H](NC(=O)c5cn6cc(F)ccc6n5)CC4)c(=O)c4cc(F)cnc43)c2)cc1` [Example 98, 6-fluoro-N-{cis-4-[6-fluoro-1-{4′-[2-(isopropylamino)ethyl]biphenyl-3-yl}-2,4-dioxo-1,4-dihydropyrido[2,3-d]pyrimidin-3(2H)-yl]cyclohexyl}imidazo[1,2-a]pyridine-2-carboxamide], the IC50 was 0.126 nM.

As for `CC(C)(C)OC(=O)N1CCN(Cc2ccc(-c3cccc(-n4c(=O)n([C@H]5CC[C@@H](NC(=O)c6cn7cc(F)ccc7n6)CC5)c(=O)c5cc(F)cnc54)c3)cc2)CC1` [Example 51], the IC50 was 0.0398 nM.
